The record followed here is PMC9254721, “Global update on the susceptibilities of human influenza viruses to neuraminidase inhibitors and the cap-dependent endonuclease inhibitor baloxavir, 2018–2020” (Antiviral research, 2022).

One test concerns A(H1N2)v viruses. It counts as cell-based.
For a further test, the system named is influenza viruses. It counts as cell-based, influenza virus.
The test system of test [1] is B/Yamagata-lineage virus neuraminidase (NA). In kind it is biochemical, influenza B/Yamagata-lineage virus.

For `COC(=O)OCOc1c2n(ccc1=O)N([C@@H]1c3ccccc3SCc3c1ccc(F)c3F)[C@@H]1COCCN1C2=O` [baloxavir, baloxavir marboxil], the baloxavir susceptibility result in the test with A(H1N2)v viruses is “susceptible”. Also, the “fold increase compared to the respective median EC50” value with influenza viruses is < 3 fold.
Regarding `CC(=O)N[C@H]1[C@H]([C@H](O)[C@H](O)CO)OC(C(=O)O)=C[C@@H]1N=C(N)N` [Zanamivir, zanamivir], in test [1], the “inhibition phenotype (NI/RI/HRI)” value is “RI (key: normal inhibition (NI) is a <5-fold increase in the NAI IC50; RI is a 5- to 50-fold increase; HRI is a >50-fold increase)”.
